# In patent US20140363830A1, “COMPOUNDS THAT MODULATE HSP90 ACTIVITY AND METHODS FOR IDENTIFYING SAME” (SYNTA PHARMACEUTICALS CORP., priority 2006, published 2014):
# How the values were obtained:
# [1] = system: RERF-LC-AI^IVP human lung tumor cells; experiment: RERF-LC-AI^IVP nude mouse xenograft model; assay type: in vivo
# Method: The human squamous non-small cell lung cancer cell line, RERF-LC-AI (RCB0444; S. Kyoizumi, et al., Cancer. Res. 45:3274-3281, 1985), was obtained from the Riken Cell Bank (Tsukuba, Ibaraki, Japan). […] FBS was obtained from American Type Culture Collection (Manassas, Va., USA) and all other reagents were obtained from Invitrogen Corp. (Carlsbad, Calif., USA). Approximately 4-5×10(6) cells that had been cryopreserved in liquid nitrogen were rapidly thawed at 37° C. and transferred to a 175 cm^2 tissue culture flask containing 50 ml of growth media and then incubated at 37° C. in a 5% CO2 incubator.
# (§1) The growth media was replaced every 2-3 days until the flask became 90% confluent, typically in 5-7 days. To passage and expand the cell line, a 90% confluent flask was washed with 10 ml of room temperature phosphate buffered saline (PBS) and the cells were disassociated by adding 5 ml 1× trypsin-EDTA (Invitrogen) and incubating at 37° C. until the cells detached from the surface of the flask. To inactivate the trypsin, 5 ml of growth media was added and then the contents of the flask were centrifuged to pellet the cells. The supernatant was aspirated and the cell pellet was resuspended in 10 ml of growth media and the cell number determined using a hemocytometer. Approximately 1−3×10(6) cells per flask were seeded into 175 cm^2 flasks containing 50 ml of growth media and incubated at 37° C. in a 5% CO2 incubator. When the flasks reached 90% confluence, the above passaging process was repeated until sufficient cells had been obtained for implantation into mice.
# Seven to eight week old, female Crl:CD-1-nuBR (nude) mice were obtained from Charles River Laboratories (Wilmington, Mass., USA) Animals were housed 4-5/cage in micro-isolators, with a 12 hr/12 hr light/dark cycle, acclimated for at least 1 week prior to use and fed normal laboratory chow ad libitum. Studies were conducted on animals between 8 and 12 weeks of age at implantation. […] Using a 27 gauge needle and 1 cc syringe, 0.1 ml of the cell suspension was injected subcutaneously into the flank of each nude mouse. Tumor volumes (V) were calculated by caliper measurement of the width (W), length (L) and thickness (T) of tumors using the following formula: V=0.5236×(L×W×T).
# In vivo passaged RERF-LC-AI tumor cells (RERF-LC-AI^IVP) were isolated to improve the rate of tumor implantation relative to the parental cell line in nude mice. RERF-LC-AI tumors were permitted to develop in vivo until they reached approximately 250 mm^3 in volume, which required approximately 3 weeks following implantation. Mice were euthanized via CO2 asphyxiation and their exteriors sterilized with 70% ethanol in a laminar flow hood. Using sterile technique, tumors were excised and diced in 50 ml PBS using a scalpel blade. A single cell suspension was prepared using a 55 ml Wheaton Safe-Grind tissue grinder (catalog #62400-358; VWR International, West Chester, Pa., USA) by plunging the pestle up and down 4-5 times without twisting. The suspension was strained through a […] nylon cell strainer and then centrifuged to pellet the cells. The resulting pellet was resuspended in 0.1 M NH4Cl to lyse contaminating red blood cells and then immediately centrifuged to pellet the cells. The cell pellet was resuspended in growth media and seeded into 175 cm^2 flasks containing 50 ml of growth media at 1-3 tumors/flask or approximately 10×10(6) cells/flask. […]
# [2] = system: c-kit; experiment: FACS-based c-kit degradation assay in HEL92.1.7 cells; assay type: cell-based; conditions: about 18 h
# Method: (§2) Two leukemia cell lines, HEL92.1.7 and Kasumi-1, were used for testing c-kit degradation induced by Hsp90 inhibitors of the invention. […] The cells were collected and centrifuged (SORVALL RT 6000D) at 1200 rpm for 5 min. The supernatants were discarded, and the cells were washed one time with 1×PBS. After centrifugation the cells were stained with FITC conjugated c-kit antibody (MBL International, Cat #K0105-4) in 100 ml 1×PBS at 4° C. for 1 h. The samples were read and analysized with FACSCalibur flow cytometer (Becton Dicknson).
# [3] = system: c-kit; experiment: FACS-based c-kit degradation assay in Kasumi-1 cells; assay type: cell-based; conditions: about 18 h
# Method: as §2
# [4] = system: c-kit; experiment: Western blot analysis of c-Kit in Kasumi-1 cells; assay type: cell-based
# Text: The results of the FACS analysis were confirmed with Western blot analysis (see FIG. 5). […] In contrast, 17-AAG had no effect of c-Kit protein levels.
# [5] = system: Her2; experiment: Degradation of Her2 in BT-474 cells (Western blot); assay type: cell-based, Human; conditions: for Her2 degradation: overnight
# Method: Human high-Her2 breast carcinoma BT474 (HTB-20), SK-BR-3 (HTB-30) and MCF-7 breast carcinoma (HTB-22) from American Type Culture Collection, VA, USA were grown in Dulbecco's modified Eagle's medium with 4 mM L-glutamine and antibiotics (100 IU/ml penicillin and 100 ug/ml streptomycine; GibcoBRL). To obtain exponential cell growth, cells were trypsinized, counted and seeded at a cell density of 0.5×10^6 cells/ml regularly, every 3 days. All experiments were performed on day 1 after cell passage.
# After treatment, each cytoplasmic sample was prepared from 1×10^6 cells by incubation of cell lysis buffer (#9803, cell Signaling Technology) on ice for 10 minutes. The resulting supernatant used as the cytosol fractions were dissolved with sample buffer for SDS-PAGE and run on a SDS-PAGE gel, blotted onto a nitrocellulose membrane by using semi-dry transfer. Non-specific binding to nitrocellulose was blocked with 5% skim milk in TBS with 0.5% Tween at room temperature for 1 hour, then probed with anti-Her2/ErB2 mAb (rabbit IgG, #2242, Cell Signaling) and anti-Tubulin (T9026, Sigma) as housekeeping control protein. HRP-conjugated goat antirabbit IgG (H+L) and HRP-conjugated horse antimouse IgG (H+L) were used as secondary Ab (#7074, #7076, Cell Signaling) and LumiGLO reagent, 20× Peroxide (#7003, Cell Signaling) was used for visualization.
# [6] = system: human tumor cell line MDA-MB-435S; experiment: MDA-MB-435S nude mouse xenograft model; assay type: in vivo; conditions: 300 mg/kg body weight IP, 5 days per week for 3 weeks
# Method: as §1, with “FBS was obtained from Sigma-Aldrich Corp. (St. Louis, Mo., USA), and all other reagents were obtained from Invitrogen Corp. (Carlsbad, Calif., USA). Approximately 4-5×10(6) cells that had been cryopreserved in liquid nitrogen were rapidly thawed at 37° C. and transferred to a 175 cm^2 tissue culture flask containing 50 ml of growth media and then incubated at 37° C. in a 5% CO2 incubator. The growth” for “The growth”, “ml 1× Trypsin-EDTA (Invitrogen) and” for “ml 1× trypsin-EDTA (Invitrogen) and”, “hemocytometer. Approximately 1-3×10(6) cells per” for “hemocytometer. Approximately 1−3×10(6) cells per”
# Six to eight week old, female Crl:CD-1-nuBR (nude) mice were obtained from Charles River Laboratories (Wilmington, Mass., USA) Animals were housed 4-5/cage in micro-isolators, with a 12 hr/12 hr light/dark cycle, acclimated for at least 1 week prior to use and fed normal laboratory chow ad libitum. Studies were conducted on animals between 7 and 12 weeks of age at implantation. […] Tumor volumes (V) were calculated by caliper measurement of the width (W), length (L) and thickness (T) of tumors using the following formula: V=[…]×(L×W×T) Animals were randomized into treatment groups so that the average tumor volumes of each group were similar at the start of dosing. […]
# [7] = system: Hsp90 protein; experiment: Malachite Green assay of ATPase activity of Hsp90 protein; assay type: biochemical; conditions: 37° C., 4 hours
# Method: Hsp90 protein was obtained from Stressgen (Cat#SPP-770). Assay buffer: 100 mM Tris-HCl, Ph7.4, 20 mM KCl, 6 mM MgCl2. […] Malachite green reagent was added to the reaction. […] The plate was read by an ELISA reader with an absorbance at 620 nm.
# [8] = 200 mg/kg body weight i.p., 5 days per week, 15 doses
Structure (SMILES),c-kit degradation ([2]; 0.05 μM),c-kit degradation ([2]; 0.5 μM),c-kit degradation ([3]; 0.05 μM),c-kit degradation ([3]; 0.5 μM),Her2 degradation ([5]; 0.5 μM),Her2 degradation ([5]; 2 μM),Her2 degradation ([5]; 5 μM),also measured
"CCc1cc(-c2nnc(S)n2-c2ccc(OC)c3c2ccn3C(C)C)c(O)cc1O [Compound 188, 3-(2,4-Dihydroxy-5-ethyl-phenyl)-4-(1-isopropyl-7-methoxy-indol-4-yl)-5-mercapto-[1,2,4]triazole]",induced c-kit degradation,induced c-kit degradation,induced c-kit degradation,induced c-kit degradation,,,,"effect on body weights [1, 8]: minimal effect on body weights; growth rate of RERF-LC-AI^IVP human lung tumor cells in nude mice [1, 8]: decreased the growth rate; maximum tolerated dose in nude mice ([1]; mouse, in vivo, ip): ~200 mg/kg body weight"
"CC(C)c1cc(-c2nnc(S)n2-c2ccc3c(ccn3C)c2)c(O)cc1O [Compound 221, 3-(2,4-dihydroxy-5-isopropyl-phenyl)-4-(N-methyl-indol-5-yl)-5-mercapto-[1,2,4]triazole]",induced c-kit degradation,induced c-kit degradation,induced c-kit degradation,induced c-kit degradation,,,,degradation of c-Kit (Western blot) ([4]; 100 nM): induced the degradation of c-Kit; degradation of c-Kit (Western blot) ([4]; 400 nM): induced the degradation of c-Kit
"CCc1cc(-c2nnc(S)n2-c2cccc3ccccc23)c(O)cc1O [Compound 49, 3-(2,4-Dihydroxy-5-ethyl-phenyl)-4-(naphthalen-1-yl)-5-mercapto-[1,2,4]triazole]",,,,,partial degradated,complete degradation,complete degradation,Activity in Her2 degradation relative to Compound 108 [5]: even more active than Compound 108; effect on body weights [6]: lack of an effect on body weights; toxicity [6]: not associated with significant toxicity; growth rate of MDA-MB-435S cells in nude mice ([6]; compared with 100 mg/kg 17-AAG): decreased the growth rate of MDA-MB-435S cells in nude mice to a greater extent than did a dose of 100 mg/kg body weight of the Hsp90 inhibitor 17-AAG
"Oc1ccc(-c2nnc(S)n2-c2cccc3ccccc23)c(O)c1 [Compound 108, 3-(2,4-Dihydroxy-phenyl)-4-(naphthalen-1-yl)-5-mercapto-[1,2,4]triazole]",,,,,partially degradated,partially degradated,almost completely degraded,ATPase activity of Hsp90 ([7]; 4 μM): significant inhibition; ATPase activity of Hsp90 ([7]; 40 μM): even greater inhibition of ATPase activity of Hsp90 than geldanamycin
"C=CCNC1=C2C[C@@H](C)C[C@H](OC)[C@H](O)[C@@H](C)/C=C(\C)[C@H](OC(N)=O)[C@@H](OC)/C=C\C=C(/C)C(=O)NC(=CC1=O)C2=O [Compound 17-AAG, 17-allylamino-17-demethoxygeldanamycin, reference compound]",,could not induce c-kit degradation,,could not induce c-kit degradation,,,,"growth rate of RERF-LC-AI^IVP human lung tumor cells in nude mice ([1]; 75 mg/kg body weight i.p., 5 days per week, 15 doses): decreased the growth rate; maximum tolerated dose in nude mice ([1]; i.p., 5 times per week): ~75 mg/kg body weight; c-Kit protein levels (Western blot) ([4]; concentration not given): had no effect"
